Measured values reported in patent US20220331237A1, “DEVICE, METHODS AND USES FOR TREATING ANAPHYLAXIS” (1232176 B.C. Ltd., priority 2021, published 2022).
Where two headings read alike, the source gives them in different places.

Tests used:
[1] = test system: grade 2 or higher acute allergic reaction
Source text: Institutional Review Board approval was obtained for the study and informed consent was obtained from study participants.

[2] = Experimental: Briefly, a Next Generation Impactor (Model 170 NGI; Copley) was used to capture dose exiting a regular non-sectioned AIT (used here to minimize assay steps) at an inhalation flowrate of 30 L/min. Interior surfaces of the AIT and the impaction plates within the NGI were coated with silicone grease (Molykote 316; Dow Corning) prior to testing. […] Following actuation, the AIT was washed twice with 10 mL of 0.1 N HCl, while each plate of the NGI was washed once with 5 mL of 0.1 N HCl. Samples were assayed via UV spectroscopy at the absorbance maximum of 279 nm, as discussed above.
Tests were performed using the 0.22 mm actuator orifice with Primatene Mist HFA. Both transverse and coaxial insertion angles were used, with three repeated measures taken at each orientation. Particle size distributions were characterized via calculation of the mass median aerodynamic diameter (MMAD) and geometric standard deviation (GSD) via linear interpolation (e.g., Hinds W C. 2nd ed. Hoboken, N.J.: Wiley; 1999). A validated regional lung deposition model (e.g., Javaheri et al., J Aerosol Sci. 2013, 64:81-93 and Finlay et al., Lung Delivery of Aerosolized Dextran. 2000, 161:91-7) was used to estimate tracheobronchial and alveolar deposition from the measured particle size distributions under a simulated breath with an inhaled volume of 3.0 L, inhalation flowrate of 30 L/min, a pause between inhalation of (i) 0 or (ii) 10 seconds, and exhalation flowrate of 30 L/min.

[3] = Commercial actuator, previously reported, cited from earlier work
[4] = 0.22 mm actuator orifice, unaffected by insertion angle
[5] = 0.22 mm actuator, Coaxial, 30 L/min
[6] = 0.22 mm actuator, Transverse, 30 L/min

CNCC(O)c1ccc(O)c(O)c1 (stereo not drawn) [epinephrine, 4-(1-hydroxy-2-(methylamino)ethyl)benzene-1,2-diol]
Tachycardia ([1]; Patient 1, 4 puffs given): Yes | Time to Resolution of Allergic Reaction After Treatment Initiated ([1]; Patient 1, 4 puffs given): 3 min | Tremors ([1]; Patient 1, 4 puffs given): Yes | Tachycardia ([1]; Patient 2, 4 puffs given): Yes | Time to Resolution of Allergic Reaction After Treatment Initiated ([1]; Patient 2, 4 puffs given): within 2 mins | Tremors ([1]; Patient 2, 4 puffs given): Yes | Tachycardia ([1]; Patient 3, 4 puffs given): Yes | Time to Resolution of Allergic Reaction After Treatment Initiated ([1]; Patient 3, 4 puffs given): 0.5 min | Tremors ([1]; Patient 3, 4 puffs given): Yes | Tachycardia ([1]; Patient 4, 2 puffs given): Yes | Time to Resolution of Allergic Reaction After Treatment Initiated ([1]; Patient 4, 2 puffs given): 1 min | Tremors ([1]; Patient 4, 2 puffs given): Yes | Tachycardia ([1]; Patient 5, 6 puffs given): Yes | Time to Resolution of Allergic Reaction After Treatment Initiated ([1]; Patient 5, 6 puffs given): 6 min | Tremors ([1]; Patient 5, 6 puffs given): Yes | Tachycardia ([1]; Patient 6, 9 puffs given): Yes | Tremors ([1]; Patient 6, 9 puffs given): Yes | Time to Resolution of Allergic Reaction After Treatment Initiated ([1]; Patient 6, 9 puffs given, entry runs on: resolved after 5 puffs, but recurred after 5 mins): resolved after 5 | Time to recurrence of allergic reaction after resolution ([1]; Patient 6, 9 puffs given, resolved after 5 puffs): after 5 mins | Tachycardia ([1]; Patient 7, 2 puffs given): Yes | Time to Resolution of Allergic Reaction After Treatment Initiated ([1]; Patient 7, 2 puffs given): 2 min | Tremors ([1]; Patient 7, 2 puffs given): Yes | Tachycardia ([1]; Patient 8, 2 puffs given): Yes | Time to Resolution of Allergic Reaction After Treatment Initiated ([1]; Patient 8, 2 puffs given): 1 min | Tremors ([1]; Patient 8, 2 puffs given): Yes | Tachycardia ([1]; Patient 9, 2 puffs given): Yes | Time to Resolution of Allergic Reaction After Treatment Initiated ([1]; Patient 9, 2 puffs given): 1 min | Tremors ([1]; Patient 9, 2 puffs given): Yes | Tachycardia ([1]; Patient 10, 5 puffs given): Yes | Time to Resolution of Allergic Reaction After Treatment Initiated ([1]; Patient 10, 5 puffs given): 1 min | Tremors ([1]; Patient 10, 5 puffs given): Yes | Tachycardia ([1]; Patient 11, 2 puffs given): Yes | Tremors ([1]; Patient 11, 2 puffs given): Yes | Tachycardia ([1]; Patient 12, 2 puffs given): Yes | Time to Resolution of Allergic Reaction After Treatment Initiated ([1]; Patient 12, 2 puffs given): 1 min | Tremors ([1]; Patient 12, 2 puffs given): Yes | Tachycardia ([1]; Patient 13, 2 puffs given): Yes | Time to Resolution of Allergic Reaction After Treatment Initiated ([1]; Patient 13, 2 puffs given): 1 min | Tremors ([1]; Patient 13, 2 puffs given): Yes | Tachycardia ([1]; Patient 14, 2 puffs given): Yes | Time to Resolution of Allergic Reaction After Treatment Initiated ([1]; Patient 14, 2 puffs given): 1 min | Tremors ([1]; Patient 14, 2 puffs given): Yes | Tachycardia ([1]; Patient 15, 6 puffs given): Yes | Time to Resolution of Allergic Reaction After Treatment Initiated ([1]; Patient 15, 6 puffs given): 4 min | Tremors ([1]; Patient 15, 6 puffs given): Yes | Tachycardia ([1]; Patient 16, 4 puffs given): Yes | Time to Resolution of Allergic Reaction After Treatment Initiated ([1]; Patient 16, 4 puffs given): 1.5 min | Tremors ([1]; Patient 16, 4 puffs given): Yes | Tachycardia ([1]; Patient 17, 3 puffs given): Yes | Time to Resolution of Allergic Reaction After Treatment Initiated ([1]; Patient 17, 3 puffs given): 1.5 min | Tremors ([1]; Patient 17, 3 puffs given): Yes | Tachycardia ([1]; Patient 18, 2 puffs given): Yes | Time to Resolution of Allergic Reaction After Treatment Initiated ([1]; Patient 18, 2 puffs given): within 30 secs | Tremors ([1]; Patient 18, 2 puffs given): Yes | Tachycardia ([1]; Patient 19, 4 + 2 puffs given): Yes | Time to recurrence of allergic reaction after resolution ([1]; Patient 19, 4 + 2 puffs given): after 10 mins, then | Tremors ([1]; Patient 19, 4 + 2 puffs given): Yes | Time to resolution of the recurred allergic reaction ([1]; Patient 19, 4 + 2 puffs given, after recurrence): resolved in 1 min | Time to Resolution of Allergic Reaction After Treatment Initiated ([1]; Patient 19, 4 + 2 puffs given, initial resolution): 1 minute, recurred | Need for treatment with intramuscular epinephrine ([1]; all study participants): No study participants required treatment with intramuscular epinephrine | Resolution of clinical symptoms (laryngopharyngeal and systemic) ([1]; all study participants, Primatene Mist HFA via Bespak BK633 actuator (0.22 mm)): prompt resolution of clinical symptoms | Recurrence of symptoms after initial resolution ([1]; all study participants, further doses of oral inhaled epinephrine given): In two instances symptoms recurred after initial resolution and again resolved promptly | GSD [2, 4]: ~1.63 | MMAD [2, 4]: approximately 2 μm | Deposition, NGI Stage 1 [2, 5]: 1.9 µg | Deposition, NGI Stage 2 [2, 5]: 1.9 µg | Deposition, NGI Stage 3 [2, 5]: 8.5 µg | Deposition, NGI Stage 4 [2, 5]: 82.6 µg | Deposition, NGI Stage 5 [2, 5]: 122.2 µg | Deposition, NGI Stage 6 [2, 5]: 42.0 µg | Deposition, NGI Stage 7 [2, 5]: 7.6 µg | Deposition, NGI Stage 8 [2, 5]: 0.0 µg | Deposition, Throat [2, 5]: 78.6 µg | Deposition, Total Recovered [2, 5]: 345.2 µg | MMAD (mass median aerodynamic diameter) [2, 5]: 2.00 μm | Deposition, NGI Stage 1 [2, 6]: 1.5 µg | Deposition, NGI Stage 2 [2, 6]: 1.4 µg | Deposition, NGI Stage 3 [2, 6]: 8.8 µg | Deposition, NGI Stage 4 [2, 6]: 80.8 µg | Deposition, NGI Stage 5 [2, 6]: 121.7 µg | Deposition, NGI Stage 6 [2, 6]: 43.6 µg | Deposition, NGI Stage 7 [2, 6]: 9.5 µg | Deposition, NGI Stage 8 [2, 6]: 0.0 µg | Deposition, Throat [2, 6]: 95.8 µg | Deposition, Total Recovered [2, 6]: 363.0 µg | MMAD (mass median aerodynamic diameter) [2, 6]: 1.98 μm | MMAD (mass median aerodynamic diameter) ([2]; Commercial actuator, Coaxial, calculated here from previously reported deposition): 2.05 μm | MMAD (mass median aerodynamic diameter) ([2]; Commercial actuator, Transverse, calculated here from previously reported deposition): 1.93 μm | Deposition, NGI Stage 1 ([3]; Coaxial): 2.1 µg | Deposition, NGI Stage 2 ([3]; Coaxial): 2.5 µg | Deposition, NGI Stage 3 ([3]; Coaxial): 11.1 µg | Deposition, NGI Stage 4 ([3]; Coaxial): 72.9 µg | Deposition, NGI Stage 5 ([3]; Coaxial): 99.1 µg | Deposition, NGI Stage 6 ([3]; Coaxial): 34.1 µg | Deposition, NGI Stage 7 ([3]; Coaxial): 6.3 µg | Deposition, NGI Stage 8 ([3]; Coaxial): 0.0 µg | Deposition, Throat ([3]; Coaxial): 136.3 µg | Deposition, Total Recovered ([3]; Coaxial): 364.3 µg | Deposition, NGI Stage 1 ([3]; Transverse): 0.8 µg | Deposition, NGI Stage 2 ([3]; Transverse): 1.1 µg | Deposition, NGI Stage 3 ([3]; Transverse): 6.8 µg | Deposition, NGI Stage 4 ([3]; Transverse): 56.0 µg | Deposition, NGI Stage 5 ([3]; Transverse): 96.8 µg | Deposition, NGI Stage 6 ([3]; Transverse): 37.7 µg | Deposition, NGI Stage 7 ([3]; Transverse): 6.6 µg | Deposition, NGI Stage 8 ([3]; Transverse): 0.0 µg | Deposition, Throat ([3]; Transverse): 212.9 µg | Deposition, Total Recovered ([3]; Transverse): 418.8 µg
